Results reported in patent US12594276B2, “Inhibitors of human immunodeficiency virus replication” (ViiV Healthcare UK (No.5) Limited, priority 2024, dated 2026).
Read-outs that look alike come from different tables or passages of the source.

How the values were obtained:
[1] = test system: recombinant NL4-3 virus (nef section replaced with Renilla luciferase gene) in MT-2 cells; test: HIV cell culture assay (antiviral activity, luciferase readout); type: cell-based; details: Renilla, NL43, MT-2 cells infected for 4-5 days with recombinant NL4-3 Renilla luciferase virus
Outline: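 Compound activity was measured as reduction of luciferase in MT-2 cells infected for 4-5 days with serially diluted compound present. EC50 values were calculated with the median effect equation.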

[2] = Compound cytotoxicity, XTT-based colorimetric assay; type: cell-based; details: human
Protocol: Compound cytotoxicity and the corresponding CC50 values were determined using the same protocol as described in the antiviral assay except that uninfected cells were used. Cytotoxicity was assessed on day 4 in uninfected MT2 cells by using an XTT (2,3-bis[2-Methoxy-4-nitro-5-sulfophenyl]-2H-tetrazolium-5-carboxyanilide inner salt)-based colorimetric assay (Sigma-Aldrich, St Louis, Mo).

[3] = uninfected MT2 cells, day 4, XTT, read-out: CC50

Compound	EC50 [1] [nM]	CC50 at 4 days [2, 3] [nM]	CC50 at 4 days [2] [nM]
CS(=O)(=O)Nc1nn(CCN2CCC(F)(F)C2)c2c(-n3c([C@H](Cc4cc(F)cc(F)c4)NC(=O)Cn4nc(C5CC5)c5c4C[C@@H]4C[C@H]54)nc4nc(C5CCC(F)(F)CC5)ccc4c3=O)ccc(Cl)c12 (atropisomer, axis not shown; (P)) [Example 24, N-[(1S)-1-[(3P)-3-{4-chloro-1-[2-(3,3-difluoropyrrolidin-1-yl)ethyl]-3-methanesulfonamido-1H-indazol-7-yl}-7-(4,4-difluorocyclohexyl)-4-oxo-3H,4H-pyrido[2,3-d]pyrimidin-2-yl]-2-(3,5-difluorophenyl)ethyl]-2-[(2S,4S)-9-cyclopropyl-7,8-diazatricyclo[4.3.0.0^2,^4]nona-1(6),8-dien-7-yl]acetamide]	0.007	> 50	
CS(=O)(=O)Nc1nn(CCN2C[C@@H](F)[C@@H](F)C2)c2c(-n3c([C@H](Cc4cc(F)cc(F)c4)NC(=O)Cn4nc(C(F)F)c5c4C(F)(F)[C@@H]4C[C@H]54)nc4nc(C5CCC(F)(F)CC5)ccc4c3=O)ccc(Cl)c12 (atropisomer, axis not shown; (P)) [Example 26, N-[(1S)-1-[(3P)-3-(4-chloro-1-{2-[(3R,4S)-3,4-difluoropyrrolidin-1-yl]ethyl}-3-methanesulfonamido-1H-indazol-7-yl)-7-(4,4-difluorocyclohexyl)-4-oxo-3H,4H-pyrido[2,3-d]pyrimidin-2-yl]-2-(3,5-difluorophenyl)ethyl]-2-[(2S,4R)-9-(difluoromethyl)-5,5-difluoro-7,8-diazatricyclo[4.3.0.0^2,^4]nona-1(6),8-dien-7-yl]acetamide]	0.011	> 50	
CS(=O)(=O)Nc1nn(CCN[C@@H]2CCCOC2)c2c(-n3c([C@H](Cc4cc(F)cc(F)c4)NC(=O)Cn4nc(C(F)F)c5c4C(F)(F)[C@@H]4C[C@H]54)nc4nc(C5CCC(F)(F)CC5)ccc4c3=O)ccc(Cl)c12 (atropisomer, axis not shown; (P)) [Example 40, N-[(1S)-1-[(3P)-3-[4-chloro-3-methanesulfonamido-1-(2-{[(3R)-oxan-3-yl]amino}ethyl)-1H-indazol-7-yl]-7-(4,4-difluorocyclohexyl)-4-oxo-3H,4H-pyrido[2,3-d]pyrimidin-2-yl]-2-(3,5-difluorophenyl)ethyl]-2-[(2S,4R)-9-(difluoromethyl)-5,5-difluoro-7,8-diazatricyclo[4.3.0.0^2,^4]nona-1(6),8-dien-7-yl]acetamide]	0.028	> 50	
CS(=O)(=O)Nc1nn(CCN2CC[C@](F)(C(F)(F)F)C2)c2c(-n3c([C@H](Cc4cc(F)cc(F)c4)NC(=O)Cn4nc(C(F)F)c5c4C(F)(F)[C@@H]4C[C@H]54)nc4nc(C5CCC(F)(F)CC5)ccc4c3=O)ccc(Cl)c12 (atropisomer, axis not shown; (P)) [Example 41]	0.015	> 50	
CS(=O)(=O)Nc1nn(CCN2CC[C@@](F)(C(F)(F)F)C2)c2c(-n3c([C@H](Cc4cc(F)cc(F)c4)NC(=O)Cn4nc(C(F)F)c5c4C(F)(F)[C@@H]4C[C@H]54)nc4nc(C5CCC(F)(F)CC5)ccc4c3=O)ccc(Cl)c12 (atropisomer, axis not shown; (P)) [Example 42, N-[(1S)-1-[(3P)-3-(4-chloro-1-{2-[(3S)-3-fluoro-3-(trifluoromethyl)pyrrolidin-1-yl]ethyl}-3-methanesulfonamido-1H-indazol-7-yl)-7-(4,4-difluorocyclohexyl)-4-oxo-3H,4H-pyrido[2,3-d]pyrimidin-2-yl]-2-(3,5-difluorophenyl)ethyl]-2-[(2S,4R)-9-(difluoromethyl)-5,5-difluoro-7,8-diazatricyclo[4.3.0.0^2,^4]nona-1(6),8-dien-7-yl]acetamide]	0.021	> 50	
CS(=O)(=O)Nc1nn(CCN2[C@@H]3CC[C@H]2CC(F)(F)C3)c2c(-n3c([C@H](Cc4cc(F)cc(F)c4)NC(=O)Cn4nc(C(F)F)c5c4C(F)(F)[C@@H]4C[C@H]54)nc4nc(C5CCC(F)(F)CC5)ccc4c3=O)ccc(Cl)c12 (atropisomer, axis not shown; (P)) [Example 43, N-[(1S)-1-[(3P)-3-(4-chloro-1-{2-[(1R,5S)-3,3-difluoro-8-azabicyclo[3.2.1]octan-8-yl]ethyl}-3-methanesulfonamido-1H-indazol-7-yl)-7-(4,4-difluorocyclohexyl)-4-oxo-3H,4H-pyrido[2,3-d]pyrimidin-2-yl]-2-(3,5-difluorophenyl)ethyl]-2-[(2S,4R)-9-(difluoromethyl)-5,5-difluoro-7,8-diazatricyclo[4.3.0.0^2,^4]nona-1(6),8-dien-7-yl]acetamide]	0.021		> 50
CS(=O)(=O)Nc1nn(CCN2CC(F)(F)C2)c2c(-n3c([C@H](Cc4cc(F)cc(F)c4)NC(=O)Cn4nc(C(F)F)c5c4C(F)(F)[C@@H]4C[C@H]54)nc4nc(C5CCC(F)(F)CC5)ccc4c3=O)ccc(Cl)c12 (atropisomer, axis not shown; (P)) [Example 48, N-[(1S)-1-[(3P)-3-{4-chloro-1-[2-(3,3-difluoroazetidin-1-yl)ethyl]-3-methanesulfonamido-1H-indazol-7-yl}-7-(4,4-difluorocyclohexyl)-4-oxo-3H,4H-pyrido[2,3-d]pyrimidin-2-yl]-2-(3,5-difluorophenyl)ethyl]-2-[(2S,4R)-9-(difluoromethyl)-5,5-difluoro-7,8-diazatricyclo[4.3.0.0^2,^4]nona-1(6),8-dien-7-yl]acetamide]	0.018	> 50	
Cc1cc(C2CCC(F)(F)CC2)nc2nc([C@H](Cc3cc(F)cc(F)c3)NC(=O)Cn3nc(C(F)F)c4c3C(F)(F)[C@@H]3C[C@H]43)n(-c3ccc(Cl)c4c(NS(C)(=O)=O)nn(CCOC(C)C)c34)c(=O)c12 (atropisomer, axis not shown; (P)) [Example 59, N-[(1S)-1-[(3P)-3-{4-chloro-3-methanesulfonamido-1-[2-(propan-2-yloxy)ethyl]-1H-indazol-7-yl}-7-(4,4-difluorocyclohexyl)-5-methyl-4-oxo-3H,4H-pyrido[2,3-d]pyrimidin-2-yl]-2-(3,5-difluorophenyl)ethyl]-2-[(2S,4R)-9-(difluoromethyl)-5,5-difluoro-7,8-diazatricyclo[4.3.0.0^2,^4]nona-1(6),8-dien-7-yl]acetamide]	0.011	> 50	
CCOCCn1nc(NS(C)(=O)=O)c2c(Cl)ccc(-n3c([C@H](Cc4cc(F)cc(F)c4)NC(=O)Cn4nc(C(F)F)c5c4C(F)(F)[C@@H]4C[C@H]54)nc4nc(C5CCC(F)(F)CC5)cc(C)c4c3=O)c21 (atropisomer, axis not shown; (P)) [Example 60, N-[(1S)-1-[(3P)-3-[4-chloro-1-(2-ethoxyethyl)-3-methanesulfonamido-1H-indazol-7-yl]-7-(4,4-difluorocyclohexyl)-5-methyl-4-oxo-3H,4H-pyrido[2,3-d]pyrimidin-2-yl]-2-(3,5-difluorophenyl)ethyl]-2-[(2S,4R)-9-(difluoromethyl)-5,5-difluoro-7,8-diazatricyclo[4.3.0.0^2,^4]nona-1(6),8-dien-7-yl]acetamide]	0.012	> 50	
Cc1cc(C2CCC(F)(F)CC2)nc2nc([C@H](Cc3cc(F)cc(F)c3)NC(=O)Cn3nc(C(F)F)c4c3C(F)(F)[C@@H]3C[C@H]43)n(-c3ccc(Cl)c4c(NS(C)(=O)=O)nn(CCOCC(F)(F)F)c34)c(=O)c12 (atropisomer, axis not shown; (P)) [Example 72, N-[(1S)-1-[(3P)-3-{4-chloro-3-methanesulfonamido-1-[2-(2,2,2-trifluoroethoxy)ethyl]-1H-indazol-7-yl}-7-(4,4-difluorocyclohexyl)-5-methyl-4-oxo-3H,4H-pyrido[2,3-d]pyrimidin-2-yl]-2-(3,5-difluorophenyl)ethyl]-2-[(2S,4R)-9-(difluoromethyl)-5,5-difluoro-7,8-diazatricyclo[4.3.0.0^2,^4]nona-1(6),8-dien-7-yl]acetamide]	0.029	> 50	
CO[C@H](C)Cn1nc(NS(C)(=O)=O)c2c(Cl)ccc(-n3c([C@H](Cc4cc(F)cc(F)c4)NC(=O)Cn4nc(C(F)F)c5c4C(F)(F)[C@@H]4C[C@H]54)nc4nc(C5CCC(F)(F)CC5)cc(C)c4c3=O)c21 (atropisomer, axis not shown; (P)) [Example 77, N-[(1S)-1-[(3P)-3-{4-chloro-3-methanesulfonamido-1-[(2R)-2-methoxypropyl]-1H-indazol-7-yl}-7-(4,4-difluorocyclohexyl)-5-methyl-4-oxo-3H,4H-pyrido[2,3-d]pyrimidin-2-yl]-2-(3,5-difluorophenyl)ethyl]-2-[(2S,4R)-9-(difluoromethyl)-5,5-difluoro-7,8-diazatricyclo[4.3.0.0^2,^4]nona-1(6),8-dien-7-yl]acetamide]	0.018	> 50	
CO[C@@H](C)Cn1nc(NS(C)(=O)=O)c2c(Cl)ccc(-n3c([C@H](Cc4cc(F)cc(F)c4)NC(=O)Cn4nc(C(F)F)c5c4C(F)(F)[C@@H]4C[C@H]54)nc4nc(C5CCC(F)(F)CC5)cc(C)c4c3=O)c21 (atropisomer, axis not shown; (P)) [Example 78, N-[(1S)-1-[(3P)-3-{4-chloro-3-methanesulfonamido-1-[(2S)-2-methoxypropyl]-1H-indazol-7-yl}-7-(4,4-difluorocyclohexyl)-5-methyl-4-oxo-3H,4H-pyrido[2,3-d]pyrimidin-2-yl]-2-(3,5-difluorophenyl)ethyl]-2-[(2S,4R)-9-(difluoromethyl)-5,5-difluoro-7,8-diazatricyclo[4.3.0.0^2,^4]nona-1(6),8-dien-7-yl]acetamide]	0.016	> 50	
